ChEMBL document CHEMBL4665869, “New thiazolopyrimidine as anticancer agents: Synthesis, biological evaluation, DNA binding, molecular modeling and ADMET study” (Bioorg Med Chem Lett, 2020)
Values after ≈ are worked out from the molar mass of the structure shown.

Experiments:
[1] = test system: NCI-H322M; assay: Growth inhibition of human NCI-H322M cells at 10 uM relative to control; type: functional; settings: read-out: GI
[2] = test system: UACC-62; assay: Growth inhibition of human UACC-62 cells at 10 uM relative to control; type: functional; settings: read-out: GI
[3] = test system: A549; assay: Growth inhibition of human A549 cells at 10 uM relative to control; type: functional; settings: read-out: GI
[4] = test system: PC-3; assay: Growth inhibition of human PC-3 cells at 10 uM relative to control; type: functional; settings: read-out: GI
[5] = test system: CCRF-CEM; assay: Growth inhibition of human CCRF-CEM cells at 10 uM relative to control; type: functional; settings: read-out: GI
[6] = test system: SW-620; assay: Growth inhibition of human SW-620 cells at 10 uM relative to control; type: functional; settings: read-out: GI
[7] = test system: SNB-19; assay: Growth inhibition of human SNB-19 cells at 10 uM relative to control; type: functional; settings: read-out: GI
[8] = test system: NCI/ADR-RES; assay: Growth inhibition of human NCI/ADR-RES cells at 10 uM relative to control; type: functional; settings: read-out: GI
[9] = test system: T47D; assay: Growth inhibition of human T47D cells at 10 uM relative to control; type: functional; settings: read-out: GI
[10] = test system: SR; assay: Growth inhibition of human SR cells at 10 uM relative to control; type: functional; settings: read-out: GI
[11] = test system: HT-29; assay: Growth inhibition of human HT-29 cells at 10 uM relative to control; type: functional; settings: read-out: GI
[12] = test system: U-251; assay: Growth inhibition of human U-251 cells at 10 uM relative to control; type: functional; settings: read-out: GI
[13] = test system: IGROV-1; assay: Growth inhibition of human IGROV-1 cells at 10 uM relative to control; type: functional; settings: read-out: GI
[14] = test system: A498; assay: Growth inhibition of human A498 cells at 10 uM relative to control; type: functional; settings: read-out: GI
[15] = test system: MDA-MB-231; assay: Growth inhibition of human MDA-MB-231 cells at 10 uM relative to control; type: functional; settings: read-out: GI
[16] = test system: LOX IMVI; assay: Growth inhibition of human LOX IMVI cells at 10 uM relative to control; type: functional; settings: read-out: GI
[17] = test system: MCF7; assay: Growth inhibition of human MCF7 cells at 10 uM relative to control; type: functional; settings: read-out: GI
[18] = test system: NCI-H23; assay: Growth inhibition of human NCI-H23 cells at 10 uM relative to control; type: functional; settings: read-out: GI
[19] = biological target: DNA; assay: Displacement of methyl green from DNA (unknown origin) assessed as DNA intercalation after 24 hrs by colorimetric assay; type: nucleic-acid assay
[20] = test system: UACC-257; assay: Growth inhibition of human UACC-257 cells at 10 uM relative to control; type: functional; settings: read-out: GI
[21] = test system: MDA-MB-468; assay: Growth inhibition of human MDA-MB-468 cells at 10 uM relative to control; type: functional; settings: read-out: GI
[22] = test system: MOLT-4; assay: Growth inhibition of human MOLT-4 cells at 10 uM relative to control; type: functional; settings: read-out: GI
[23] = test system: HOP-62; assay: Growth inhibition of human HOP-62 cells at 10 uM relative to control; type: functional; settings: read-out: GI
[24] = test system: ACHN; assay: Growth inhibition of human ACHN cells at 10 uM relative to control; type: functional; settings: read-out: GI
[25] = test system: RPMI-8226; assay: Growth inhibition of human RPMI-8226 cells at 10 uM relative to control; type: functional; settings: read-out: GI
[26] = test system: NCI-H522; assay: Growth inhibition of human NCI-H522 cells at 10 uM relative to control; type: functional; settings: read-out: GI
[27] = test system: SK-MEL-28; assay: Growth inhibition of human SK-MEL-28 cells at 10 uM relative to control; type: functional; settings: read-out: GI
[28] = test system: HCT-116; assay: Growth inhibition of human HCT-116 cells at 10 uM relative to control; type: functional; settings: read-out: GI
[29] = test system: M14; assay: Growth inhibition of human M14 cells at 10 uM relative to control; type: functional; settings: read-out: GI
[30] = test system: SF-268; assay: Growth inhibition of human SF-268 cells at 10 uM relative to control; type: functional; settings: read-out: GI
[31] = test system: HL-60(TB); assay: Growth inhibition of human HL-60(TB) cells at 10 uM relative to control; type: functional; settings: read-out: GI
[32] = test system: TK-10; assay: Growth inhibition of human TK-10 cells at 10 uM relative to control; type: functional; settings: read-out: GI
[33] = test system: Hs-578T; assay: Growth inhibition of human Hs-578T cells at 10 uM relative to control; type: functional; settings: read-out: GI
[34] = test system: HOP-92; assay: Growth inhibition of human HOP-92 cells at 10 uM relative to control; type: functional; settings: read-out: GI
[35] = test system: Malme-3M; assay: Growth inhibition of human Malme-3M cells at 10 uM relative to control; type: functional; settings: read-out: GI
[36] = test system: SK-MEL-5; assay: Growth inhibition of human SK-MEL-5 cells at 10 uM relative to control; type: functional; settings: read-out: GI
[37] = test system: SNB-75; assay: Growth inhibition of human SNB-75 cells at 10 uM relative to control; type: functional; settings: read-out: GI
[38] = test system: OVCAR-8; assay: Growth inhibition of human OVCAR-8 cells at 10 uM relative to control; type: functional; settings: read-out: GI
[39] = test system: SK-OV-3; assay: Growth inhibition of human SK-OV-3 cells at 10 uM relative to control; type: functional; settings: read-out: GI
[40] = test system: DU-145; assay: Growth inhibition of human DU-145 cells at 10 uM relative to control; type: functional; settings: read-out: GI
[41] = test system: COLO 205; assay: Growth inhibition of human COLO 205 cells at 10 uM relative to control; type: functional; settings: read-out: GI
[42] = test system: NCI-H460; assay: Growth inhibition of human NCI-H460 cells at 10 uM relative to control; type: functional; settings: read-out: GI
[43] = test system: K562; assay: Growth inhibition of human K562 cells at 10 uM relative to control; type: functional; settings: read-out: GI
[44] = test system: SN12C; assay: Growth inhibition of human SN12C cells at 10 uM relative to control; type: functional; settings: read-out: GI
[45] = test system: NCI-H226; assay: Growth inhibition of human NCI-H226 cells at 10 uM relative to control; type: functional; settings: read-out: GI
[46] = test system: HCC 2998; assay: Growth inhibition of human HCC 2998 cells at 10 uM relative to control; type: functional; settings: read-out: GI
[47] = test system: OVCAR-4; assay: Growth inhibition of human OVCAR-4 cells at 10 uM relative to control; type: functional; settings: read-out: GI
[48] = test system: HCT-15; assay: Growth inhibition of human HCT-15 cells at 10 uM relative to control; type: functional; settings: read-out: GI
[49] = test system: SF-539; assay: Growth inhibition of human SF-539 cells at 10 uM relative to control; type: functional; settings: read-out: GI
[50] = test system: CAKI-1; assay: Growth inhibition of human CAKI-1 cells at 10 uM relative to control; type: functional; settings: read-out: GI
[51] = test system: KM12; assay: Growth inhibition of human KM12 cells at 10 uM relative to control; type: functional; settings: read-out: GI
[52] = test system: MDA-MB-435; assay: Growth inhibition of human MDA-MB-435 cells at 10 uM relative to control; type: functional; settings: read-out: GI
[53] = test system: SF-295; assay: Growth inhibition of human SF-295 cells at 10 uM relative to control; type: functional; settings: read-out: GI
[54] = test system: UO-31; assay: Growth inhibition of human UO-31 cells at 10 uM relative to control; type: functional; settings: read-out: GI
[55] = test system: 786-0; assay: Growth inhibition of human 786-0 cells at 10 uM relative to control; type: functional; settings: read-out: GI
[56] = test system: RXF 393; assay: Growth inhibition of human RXF 393 cells at 10 uM relative to control; type: functional; settings: read-out: GI
[57] = test system: SK-MEL-2; assay: Growth inhibition of human SK-MEL-2 cells at 10 uM relative to control; type: functional; settings: read-out: GI
[58] = test system: BT-549; assay: Growth inhibition of human BT-549 cells at 10 uM relative to control; type: functional; settings: read-out: GI
[59] = test system: OVCAR-5; assay: Growth inhibition of human OVCAR-5 cells at 10 uM relative to control; type: functional; settings: read-out: GI

## COc1ccc(/C=C/C2=CC(c3ccc(OC)cc3)N3C=CSC3=N2)cc1 (centres undefined)
[1]
  inhibition of growth at 10 µM: < 10%
[2]
  inhibition of growth at 10 µM: < 10%
[3]
  inhibition of growth at 10 µM: < 10%
[4]
  inhibition of growth at 10 µM: 17.2%
[5]
  inhibition of growth at 10 µM: < 10%
[6]
  inhibition of growth at 10 µM: < 10%
[7]
  inhibition of growth at 10 µM: < 10%
[8]
  inhibition of growth at 10 µM: < 10%
[9]
  inhibition of growth at 10 µM: < 10%
[10]
  inhibition of growth at 10 µM: < 10%
[11]
  inhibition of growth at 10 µM: < 10%
[12]
  inhibition of growth at 10 µM: < 10%
[13]
  inhibition of growth at 10 µM: < 10%
[14]
  inhibition of growth at 10 µM: < 10%
[15]
  inhibition of growth at 10 µM: < 10%
[16]
  inhibition of growth at 10 µM: < 10%
[17]
  inhibition of growth at 10 µM: < 10%
[18]
  inhibition of growth at 10 µM: < 10%
[19]
  IC50: 47.75 µg/mL (≈ 127 µM)
[20]
  inhibition of growth at 10 µM: 11.9%
[21]
  inhibition of growth at 10 µM: < 10%
[22]
  inhibition of growth at 10 µM: < 10%
[23]
  inhibition of growth at 10 µM: < 10%
[24]
  inhibition of growth at 10 µM: < 10%
[25]
  inhibition of growth at 10 µM: < 10%
[26]
  inhibition of growth at 10 µM: < 10%
[27]
  inhibition of growth at 10 µM: < 10%
[28]
  inhibition of growth at 10 µM: < 10%
[29]
  inhibition of growth at 10 µM: < 10%
[30]
  inhibition of growth at 10 µM: < 10%
[31]
  inhibition of growth at 10 µM: < 10%
[32]
  inhibition of growth at 10 µM: < 10%
[33]
  inhibition of growth at 10 µM: < 10%
[34]
  inhibition of growth at 10 µM: 10.1%
[35]
  inhibition of growth at 10 µM: < 10%
[36]
  inhibition of growth at 10 µM: < 10%
[37]
  inhibition of growth at 10 µM: < 10%
[38]
  inhibition of growth at 10 µM: < 10%
[39]
  inhibition of growth at 10 µM: < 10%
[40]
  inhibition of growth at 10 µM: < 10%
[41]
  inhibition of growth at 10 µM: < 10%
[42]
  inhibition of growth at 10 µM: < 10%
[43]
  inhibition of growth at 10 µM: < 10%
[44]
  inhibition of growth at 10 µM: < 10%
[45]
  inhibition of growth at 10 µM: < 10%
[46]
  inhibition of growth at 10 µM: < 10%
[47]
  inhibition of growth at 10 µM: < 10%
[48]
  inhibition of growth at 10 µM: < 10%
[49]
  inhibition of growth at 10 µM: < 10%
[50]
  inhibition of growth at 10 µM: < 10%
[51]
  inhibition of growth at 10 µM: < 10%
[52]
  inhibition of growth at 10 µM: < 10%
[53]
  inhibition of growth at 10 µM: < 10%
[54]
  inhibition of growth at 10 µM: < 10%
[55]
  inhibition of growth at 10 µM: < 10%
[56]
  inhibition of growth at 10 µM: < 10%
[57]
  inhibition of growth at 10 µM: < 10%
[58]
  inhibition of growth at 10 µM: < 10%
[59]
  inhibition of growth at 10 µM: < 10%
